The text below walks through data of patent US8865704B2, “Wnt pathway antagonists” (Siena Biotech S.p.A., priority 2009, dated 2014).

Structures are written as SMILES.

The test system of assay [1] is DBTRG cells. As to the kind of experiment: Soft agar anchorage independent assay. It is filed as cell-based. Particulars: 504 h, colonies scored 3 weeks later, read-out: 1050 value in the soft agar assay. Here is the method:
The pharmacological activity of the compounds of the invention may be tested in vitro for growth inhibition against tumour cell lines. Such cell lines may, for example be representative of glioblastoma (such as DBTRG-05MG), or colorectal (for example DLD-1, HCT116) cancer. The different genetic background of the cancer cell will facilitate to understand to which level of the pathway the compounds work. If the cells harbour a truncated APC allele, the destruction complex activity is affected; if cells carry a gain of function mutation in the β-catenin gene, which prevents β-catenin protein degradation, this leads to constitutive activation of downstream genes. There are many assays available for testing the growth inhibition.
Soft Agar Anchorage Independent Assay
DBTRG cells were seeded into a 24-well format in the presence of carrier alone or compound (0.6% DMSO (v/v)). Each well is composed of two agar layers: the bottom layer consists of 0.6% Agar while the top has 0.35% Agar plus cells and compound. Cells (2500 per well) were incubated with 7 points dilution compound the day of the plating and the colonies were scored 3 weeks later after o/n staining with MTT solution. Imaging and counting of the colonies was done with the GelCount™ instrument (Oxford Optronix, UK). For IC50 determination the data were expressed as % of control, values were calculated using XLFit version 4.2, with a four parameters sigmoid function (XLFit model 205).

Assay [2] relates to Wnt/β-catenin pathway. The assay is described as follows: Wnt reporter assay (TCF-Luciferase, Firefly) in DBTRG-05MG cells. It is filed as cell-based. Conditions: Homo sapiens, 24 hours after compound addition. In a few lines:
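DBTRG-05MG cells carrying a 4×TCF-driven firefly luciferase reporter, kept under Zeocin or Zeocin plus Hygromicin selection. Compounds added 36 hours after plating at 8 points from 60 μM to 0.185 μM (0.6% DMSO), triplicate, for 24 hours. Firefly and Renilla luminescence each expressed as % of control; IC50 from four-parameter sigmoid fit.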

In the case of `COc1ccc2[nH]c(=O)n(C[C@H]3CC[C@H](C(=O)N4CCN(C(=O)C(C)C)CC4)CC3)c(=O)c2c1` [Example 3, 3-[trans-4-(4-Isobutyryl-piperazine-1-carbonyl)-cyclohexylmethyl]-6-methoxy-1H-quinazoline-2,4-dione], the figures for the IC50 in assay [1] and in assay [2] were 0.9 to 30 µM and 0.3 to 30 µM, respectively.

Regarding `CCCC(=O)N1CCN(C(=O)[C@H]2CC[C@H](Cn3c(=O)c4ccccc4n(C)c3=O)CC2)CC1` [Example 5, 3-[trans-4-(4-Butyryl-piperazine-1-carbonyl)-cyclohexylmethyl]-1-methyl-1H-quinazoline-2,4-dione], the results for the IC50 in assay [1] and in assay [2] were 0.9 to 30 µM and 0.3 to 30 µM, respectively.

For `Cn1c(=O)n(C[C@H]2CC[C@H](C(=O)N3CCOCC3)CC2)c2cc(C(F)(F)F)ccc21` [Example 10, 1-Methyl-3-[trans-4-(morpholine-4-carbonyl)-cyclohexylmethyl]-5-trifluoromethyl-1,3-dihydro-benzoimidazol-2-one], the IC50 in assay [1] lay in the range of 0.9 to 30 µM; in assay [2], 0.3 to 30 µM.

As to `O=C(C1CCC(Cn2c(=O)[nH]c3ccccc3c2=O)CC1)N1CCN(c2ccccc2)CC1` (stereo not shown) [Example 18], the IC50 fell in the range of 0.9 to 30 µM in assay [1] and 0.3 to 30 µM in assay [2].

With `O=c1[nH]c2ccccc2c(=O)n1C[C@H]1CC[C@H](C(=O)N2CCN(c3ccc(F)cc3)CC2)CC1` [Example 20], the figures for the IC50 in assay [1] and in assay [2] were 0.9 to 30 µM and 0.3 to 30 µM, respectively.

In the case of `COc1ccccc1N1CCN(C(=O)[C@H]2CC[C@H](Cn3c(=O)[nH]c4ccccc4c3=O)CC2)CC1` [Example 21], the IC50 in assay [1] is 0.9 to 30 µM; in assay [2] it was 0.3 to 30 µM.

Turning to `O=c1[nH]c2ccc(Cl)cc2c(=O)n1C[C@H]1CC[C@H](C(=O)N2CCN(c3ccccc3)CC2)CC1` [Example 26], the IC50 lay within 0.9 to 30 µM in assay [1] and 0.3 to 30 µM in assay [2].

With `CC(=O)N1CCN(C(=O)[C@H]2CC[C@H](Cn3c(=O)[nH]c4ccc(Cl)cc4c3=O)CC2)CC1` [Example 27], the IC50 in assay [1] was in the range of 0.9 to 30 µM; in assay [2], 0.3 to 30 µM.

`O=C(C1CCCC1)N1CCN(C(=O)[C@H]2CC[C@H](Cn3c(=O)[nH]c4ccccc4c3=O)CC2)CC1` [Example 29]: the IC50 in assay [1] was in the range of 0.9 to 30 µM; in assay [2] it was 0.3 to 30 µM.

Turning to `O=C(c1cccs1)N1CCN(C(=O)[C@H]2CC[C@H](Cn3c(=O)[nH]c4ccccc4c3=O)CC2)CC1` [Example 37], the IC50 was 0.9 to 30 µM in assay [1] and 0.3 to 30 µM in assay [2].

On to `O=C(C1CCC(Cn2c(=O)[nH]c3ccccc3c2=O)CC1)N1CCN(C(=O)C2CC2)CC1` (stereo not shown) [Example 47], for which the figures for the IC50 in assay [1] and in assay [2] were 0.9 to 30 µM and 0.3 to 30 µM, respectively.

`O=C(c1ccco1)N1CCN(C(=O)C2CCC(Cn3c(=O)[nH]c4ccccc4c3=O)CC2)CC1` (stereo not shown) [Example 48]: the values for the IC50 in assay [1] and in assay [2] were 0.9 to 30 µM and 0.3 to 30 µM, respectively.

`Cn1c(=O)n(C[C@H]2CC[C@H](C(=O)N3CCN(C(=O)C4CC4)CC3)CC2)c(=O)c2ccccc21` [Example 56]: the IC50 in assay [1] fell in the range of 0.9 to 30 µM; in assay [2], 0.3 to 30 µM.

Regarding `O=c1[nH]c2ccccc2c(=O)n1C[C@H]1CC[C@H](C(=O)N2CCN(c3cnccn3)CC2)CC1` [Example 57], the IC50 in assay [1] was in the range of 0.9 to 30 µM; in assay [2], 0.3 to 30 µM.

Consider `CC(C)C(=O)N1CCN(C(=O)[C@H]2CC[C@H](Cn3c(=O)[nH]c4ccccc43)CC2)CC1` [Example 58], for which the IC50 is 0.9 to 30 µM in assay [1] and 0.3 to 30 µM in assay [2].

`O=C(CC1CCCCC1)N1CCN(C(=O)[C@H]2CC[C@H](Cn3c(=O)[nH]c4ccccc4c3=O)CC2)CC1` [Example 59]: the IC50 was in the range of 0.9 to 30 µM in assay [1] and 0.3 to 30 µM in assay [2].

With `O=C(C1CCC1)N1CCN(C(=O)[C@H]2CC[C@H](Cn3c(=O)[nH]c4ccccc4c3=O)CC2)CC1` [Example 60], the IC50 lay in the range of 0.9 to 30 µM in assay [1] and 0.3 to 30 µM in assay [2].

Take `COCC(=O)N1CCN(C(=O)[C@H]2CC[C@H](Cn3c(=O)c4cc(OC)ccc4n(C)c3=O)CC2)CC1` [Example 66]: the IC50 was 0.9 to 30 µM in assay [1] and 0.3 to 30 µM in assay [2].

Consider `COc1ccc2c(c1)CN(C[C@H]1CC[C@H](C(=O)N3CCN(C(=O)C4CC4)CC3)CC1)C(=O)N2` [Example 71], for which the IC50 in assay [1] lay in the range of 0.9 to 30 µM; in assay [2], 0.3 to 30 µM.

Turning to `COc1ccc2[nH]c(=O)n(C[C@H]3CC[C@H](C(=O)N4CCN(C(=O)C5CC5)CC4)CC3)c(=O)c2c1` [Example 75], the IC50 in assay [1] was in the range of 0.9 to 30 µM; in assay [2] it was 0.3 to 30 µM.

In the case of `COCC(=O)N1CCN(C(=O)[C@H]2CC[C@H](Cn3c(=O)[nH]c4ccc(OC)cc4c3=O)CC2)CC1` [Example 77], the IC50 in assay [1] was 0.9 to 30 µM; in assay [2], 0.3 to 30 µM.

Consider `COc1ccc2c(c1)c(=O)n(C[C@H]1CC[C@H](C(=O)N3CCN(C(=O)C4CC4)CC3)CC1)c(=O)n2C` [Example 78], for which the IC50 fell in the range of 0.9 to 30 µM in assay [1] and 0.3 to 30 µM in assay [2].

For `O=C(C1CC1)N1CCN(C(=O)[C@H]2CC[C@H](Cn3c(=O)c4ccccc4n(CCF)c3=O)CC2)CC1` [Example 79], the IC50 in assay [1] was 0.9 to 30 µM; in assay [2], 0.3 to 30 µM.

In the case of `Cn1c(=O)n(C[C@H]2CC[C@H](C(=O)N3CCN(C(=O)C4CC4)CC3)CC2)c2ccccc21` [Example 80], the IC50 in assay [1] fell in the range of 0.9 to 30 µM; in assay [2], 0.3 to 30 µM.

Take `COc1ccc2c(c1)c(=O)n(C[C@H]1CC[C@H](C(=O)N3CCN(C)C(=O)C3)CC1)c(=O)n2C` [Example 92]: the IC50 in assay [1] was 0.9 to 30 µM; in assay [2] it was 0.3 to 30 µM.

In the case of `COc1ccc2[nH]c(=O)n(C[C@H]3CC[C@H](C(=O)N4CCN(C(C)=O)CC4)CC3)c(=O)c2c1` [Example 99], the IC50 in assay [1] lay within 0.9 to 30 µM; in assay [2], 0.3 to 30 µM.

With `COc1ccc2[nH]c(=O)n(C[C@H]3CC[C@H](C(=O)N4CCN(C(=O)[C@H]5CCCO5)CC4)CC3)c(=O)c2c1` [Example 109], the IC50 was in the range of 0.9 to 30 µM in assay [1] and 0.3 to 30 µM in assay [2].

Regarding `COC(=O)N1CCN(C(=O)[C@H]2CC[C@H](Cn3c(=O)[nH]c4ccc(OC)cc4c3=O)CC2)CC1` [Example 116], the IC50 in assay [1] was 0.9 to 30 µM; in assay [2], 0.3 to 30 µM.

`COc1ccc2c(c1)c(=O)n(C[C@H]1CC[C@H](C(=O)N3CCN(C(=O)c4cncn4C)CC3)CC1)c(=O)n2C` [Example 122]: the IC50 in assay [1] was in the range of 0.9 to 30 µM; in assay [2] it was 0.3 to 30 µM.

For `COc1ccc2c(c1)n(C[C@H]1CC[C@H](C(=O)N3CCN(C(=O)C4CC4)CC3)CC1)c(=O)n2C` [Example 135], the IC50 in assay [1] is 0.9 to 30 µM; in assay [2], 0.3 to 30 µM.

For `COc1ccc2c(c1)c(=O)n(C[C@H]1CC[C@H](C(=O)N3CCN(C(C)=O)CC3)CC1)c(=O)n2C` [Example 136], the IC50 was in the range of 0.9 to 30 µM in assay [1] and 0.3 to 30 µM in assay [2].

On to `COc1ccc2c(c1)c(=O)n(C[C@H]1CC[C@H](C(=O)N3CCN(C(=O)c4ccno4)CC3)CC1)c(=O)n2C` [Example 146], for which the IC50 in assay [1] is 0.9 to 30 µM; in assay [2], 0.3 to 30 µM.

Consider `Cc1ccc2c(n1)n(C[C@H]1CC[C@H](C(=O)N3CCN(C(=O)C4CC4)CC3)CC1)c(=O)n2C` [Example 169], for which the figures for the IC50 in assay [1] and in assay [2] were 0.9 to 30 µM and 0.3 to 30 µM, respectively.

Turning to `COC(=O)N1CCN(C(=O)[C@H]2CC[C@H](Cn3c(=O)c4cc(OC)ccc4n(C)c3=O)CC2)CC1` [Example 175], the IC50 in assay [1] was in the range of 0.9 to 30 µM; in assay [2] it was 0.3 to 30 µM.

For `CC(=O)N1CCN(C(=O)[C@H]2CC[C@H](Cn3c(=O)n(C)c4ccc(C)nc43)CC2)CC1` [Example 207], the IC50 in assay [2] was 0.3 to 30 µM.

`COCC(=O)N1CCN(C(=O)[C@H]2CC[C@H](Cn3c(=O)n(C)c4ccc(OC)nc43)CC2)CC1` [Example 208] yielded an IC50 in assay [2] of 0.3 to 30 µM.

Take `COc1cccc(NC(=O)[C@H]2CC[C@H](Cn3c(=O)n(C)c4ccc(OC)nc43)CC2)c1` [Example 209]: the IC50 in assay [2] fell in the range of 0.3 to 30 µM.

Consider `COc1ccc2c(c1)n(C[C@H]1CC[C@H](C(=O)N3CCN(C(=O)c4cc(C)nn4C)CC3)CC1)c(=O)n2C` [Example 210], for which the IC50 in assay [2] lay in the range of 0.3 to 30 µM.

As for `COc1ccc2c(c1)n(C[C@H]1CC[C@H](C(=O)N3CCN(C(=O)c4nccn4C)CC3)CC1)c(=O)n2C` [Example 211], the IC50 in assay [2] is 0.3 to 30 µM.
